These results are taken from US7067518B2, “Pyridinyl-methyl-ethyl cyclohexanecarboxamides as serotonergic agents” (Wyeth, priority 2002, dated 2006).

Experiment [1] has as its target T1, human 5-HT1A receptor (Homo sapiens, UniProt P08908).
T1 construct: expressed in transfected cells; host or cells: CHO cells (stably transfected)
T1 sequence (P08908 1-422): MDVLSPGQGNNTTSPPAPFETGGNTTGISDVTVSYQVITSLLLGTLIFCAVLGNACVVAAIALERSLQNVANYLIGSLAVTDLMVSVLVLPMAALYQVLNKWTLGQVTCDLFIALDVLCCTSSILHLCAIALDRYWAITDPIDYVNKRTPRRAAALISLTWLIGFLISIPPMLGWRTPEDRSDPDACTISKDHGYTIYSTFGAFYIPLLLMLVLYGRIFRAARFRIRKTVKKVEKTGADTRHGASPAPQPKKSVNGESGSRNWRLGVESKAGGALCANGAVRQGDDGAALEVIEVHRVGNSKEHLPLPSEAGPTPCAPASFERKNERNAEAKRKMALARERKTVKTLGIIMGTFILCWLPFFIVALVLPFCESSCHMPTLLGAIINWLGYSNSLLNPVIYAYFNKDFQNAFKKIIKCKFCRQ
The experiment in a line: 5-HT1A affinity: displacement of [3H] 8-OHDPAT. Type of experiment: binding. As to conditions: CHO cells stably transfected with the human 5-HT1A receptor. An excerpt:
Affinity for the serotonin 5-HT1A receptor was established by assaying the test compound's ability to displace [^3H] 8-OHDPAT from its binding site on the receptor complex in CHO cells stably transfected with the human 5-HT1A receptor following the procedure described by J. Dunlop, Y. Zhang, D. Smith and L. Schechter (Eur. J. Pharmacol., submitted; variation of a procedure described by J. Zgombick et al., Naunyn-Schmiedeberg's Arch. Pharmacol., 354, 226–236 (1996)).

Experiment [2] addresses T1, human 5-HT1A receptor. The experiment in a line: Agonist activity: reversal of forskolin stimulation of cAMP. The following applies: reversal of forskolin-stimulated cAMP; CHO cells stably transfected with the human 5-HT1A receptor; RIA. The class given is cell-based. The procedure: EC50 values are determined for the active test compounds. Stably transfected CHO cells were grown in DMEM containing 10% heat inactivated FBS and non-essential amino acids. The cells are plated at a density of […] per well in a 24 well plate and incubated for 2 days in a CO2 incubator. On the second day, the media is replaced with 0.5 mL treatment buffer (DMEM+25 mM HEPES, 5 mM theophylline, 10 mM pargyline) and incubated for 10 minutes at 37° C. Wells are treated with forskolin ([…]) followed immediately by the test compound ([…] for initial screen) and incubated for an additional 10 minutes at 37° C. The reaction is terminated by removal of the media and addition of 0.5 mL ice cold assay buffer (supplied in the RIA kit). Plates are stored at −20° C. prior to assessment of cAMP formation by RIA.

With `CC1(C(=O)N[C@H](Cc2cccnc2)CN2CCN(c3cccc4c3OCCO4)CC2)CCCCC1` [Example 22, 1-Methyl-cyclohexanecarboxylic acid {(1R)-2-[4-(2,3-dihydro-benzo[1,4]dioxin-5-yl)-piperazin-1-yl]-1-pyridin-3-ylmethyl-ethyl}-amide], in experiment [1], the IC50 stood at 2.58 nM. Besides, the concentration for a half-maximal effect (EC50) in experiment [2] came out at 10.2 nM.
